Laboratory results reported in ChEMBL document CHEMBL1133000, “Inhibition of protein kinase C(alpha) by dequalinium analogues: dependence on linker length and geometry” (J Med Chem, 2000).

Each compound was assayed against Protein kinase C alpha type (Homo sapiens, UniProt P17252) (assay: Inhibition of human recombinant PKCalpha).
`Cc1cc(N)c2ccccc2[n+]1CCCC/C=C\CCCC[n+]1c(C)cc(N)c2ccccc21` was tested, and the IC50 was 52 µM.
Compound `Cc1cc(N)c2ccccc2[n+]1CCCC/C=C/CCCC[n+]1c(C)cc(N)c2ccccc21` has an IC50 of 12 µM.
Compound `CCCC/C=C/CCCC[n+]1c(C)cc(N)c2ccccc21` has an IC50 of 137 µM.
